Laboratory results from patent US12129246B1, “Hydroquinazoline derivatives for the treatment of a disease or disorder” (Novartis AG, priority 2023, dated 2024).
Read-outs that look alike come from different tables or passages of the source.

Tests used:
[1] = biological target: T1, human NPR1 (Homo sapiens, UniProt P16066); assay: Cellular cGMP production assay, human NPR1 expressing CHO-K1 cells (CisBio HTRF); assay type: cell-based; conditions: for AC50: cGMP production, 30 min at 37° C., 12-point dose-response from 30 μM; for Human NPR1 Amax (% of ANP): maximum cGMP production as percentage of the maximum cGMP produced with ANP
T1 construct: host or cells: CHO-K1
T1 sequence (P16066 33-1061): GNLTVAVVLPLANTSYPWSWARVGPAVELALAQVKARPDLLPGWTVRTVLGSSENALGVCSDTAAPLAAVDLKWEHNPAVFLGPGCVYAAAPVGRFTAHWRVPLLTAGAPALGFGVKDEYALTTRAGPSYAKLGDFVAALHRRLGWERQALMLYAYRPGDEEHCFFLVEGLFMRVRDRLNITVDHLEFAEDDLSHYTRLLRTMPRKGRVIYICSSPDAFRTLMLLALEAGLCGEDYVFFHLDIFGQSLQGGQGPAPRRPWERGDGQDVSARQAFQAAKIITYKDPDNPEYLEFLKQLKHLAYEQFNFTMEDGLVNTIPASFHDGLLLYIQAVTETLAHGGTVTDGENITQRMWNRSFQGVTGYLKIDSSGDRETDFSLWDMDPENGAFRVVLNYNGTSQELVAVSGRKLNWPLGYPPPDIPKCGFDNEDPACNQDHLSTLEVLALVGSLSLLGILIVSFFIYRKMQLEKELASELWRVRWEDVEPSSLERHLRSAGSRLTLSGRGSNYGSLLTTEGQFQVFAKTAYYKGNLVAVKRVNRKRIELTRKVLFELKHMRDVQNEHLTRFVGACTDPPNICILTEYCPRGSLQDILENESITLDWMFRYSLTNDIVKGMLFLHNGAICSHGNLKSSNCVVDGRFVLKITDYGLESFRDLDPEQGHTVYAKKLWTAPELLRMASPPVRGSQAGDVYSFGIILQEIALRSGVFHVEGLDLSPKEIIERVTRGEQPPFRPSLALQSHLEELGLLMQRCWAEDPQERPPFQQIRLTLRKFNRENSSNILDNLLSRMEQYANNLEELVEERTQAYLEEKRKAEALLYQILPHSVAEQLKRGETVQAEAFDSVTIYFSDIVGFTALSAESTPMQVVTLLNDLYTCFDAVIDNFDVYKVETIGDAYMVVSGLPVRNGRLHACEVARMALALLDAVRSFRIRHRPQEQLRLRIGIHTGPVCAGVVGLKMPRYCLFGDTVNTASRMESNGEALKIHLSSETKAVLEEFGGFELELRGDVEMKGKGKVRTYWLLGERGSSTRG
Outline: (§1)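 12-pt 3-fold dose-response, top 30 μM; buffer PBS + 0.1% BSA + 1 mM IBMX (PDE inhibitor); 30 min, 37 °C. Lyse, add cGMP-d2 + anti-cGMP-cryptate, 1 h RT. Ex 317 / em 665 nm; Delta F converted to cGMP via calibrator standard curve.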

[2] = biological target: monkey NPR1 (Macaca fascicularis, UniProt A0A7N9DBT9); assay: Cellular cGMP production assay, monkey NPR1 expressing CHO-K1 cells (CisBio HTRF); assay type: cell-based; conditions: for Monkey NPR1 Amax (% of ANP): maximum cGMP production as percentage of the maximum cGMP produced with ANP
Sequence of monkey NPR1 (A0A7N9DBT9 entry or part of it): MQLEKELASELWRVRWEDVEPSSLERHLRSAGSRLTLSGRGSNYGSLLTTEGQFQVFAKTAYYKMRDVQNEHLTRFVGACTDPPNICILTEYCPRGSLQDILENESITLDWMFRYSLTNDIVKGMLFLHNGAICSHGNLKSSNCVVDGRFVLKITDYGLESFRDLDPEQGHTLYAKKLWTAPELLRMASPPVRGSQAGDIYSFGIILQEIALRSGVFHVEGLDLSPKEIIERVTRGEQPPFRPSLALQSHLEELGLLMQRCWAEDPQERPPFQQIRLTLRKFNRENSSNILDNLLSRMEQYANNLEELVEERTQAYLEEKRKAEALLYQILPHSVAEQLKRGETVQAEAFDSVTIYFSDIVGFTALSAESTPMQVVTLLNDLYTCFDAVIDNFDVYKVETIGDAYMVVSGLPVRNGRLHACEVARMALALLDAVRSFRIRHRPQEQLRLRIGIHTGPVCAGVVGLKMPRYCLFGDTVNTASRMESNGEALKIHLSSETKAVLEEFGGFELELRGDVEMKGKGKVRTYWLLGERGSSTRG
Outline: as §1

[3] = cGMP production, monkey NPR1 CHO-K1 cells, 30 min at 37° C., 12-point dose-response from 30 μM, read-out: Monkey NPR1 AC50

| SMILES | AC50 [1] [nM] | Human NPR1 Amax (% of ANP) [1] | AC50 [2, 3] [nM] | Monkey NPR1 Amax (% of ANP) ([2]; monkey NPR1 CHO-K1 cells) | AC50 [2] [nM] |
| --- | --- | --- | --- | --- | --- |
| CC[C@@H](Nc1nc2c(c(N[C@@H](CN3CCC[C@H](C)C3)c3cnn(C)c3)n1)C[C@](C)(c1ccc(F)cc1)CC2)[C@H]1CC[C@H](C(=O)O)CC1 [Compound 5, (1R,4r)-4-((R)-1-(((R)-6-(4-fluorophenyl)-6-methyl-4-(((R)-1-(1-methyl-1H-pyrazol-4-yl)-2-((S)-3-methylpiperidin-1-yl)ethyl)amino)-5,6,7,8-tetrahydroquinazolin-2-yl)amino)propyl)cyclohexane-1-carboxylic acid] | 72 | 85.741 % of ANP | 68 | 104.503 % of ANP | – |
| CC[C@H]([C@H]1CC[C@H](C(=O)O)CC1)N(C)c1nc2c(c(N[C@@H](CN3CC4CCC3C4)c3cnn(C)c3)n1)C[C@H](c1ccccc1)CC2 (stereo partly drawn) [Compound 128, (1R,4r)-4-((1R)-1-(((6R)-4-(((1R)-2-(2-azabicyclo[2.2.1]heptan-2-yl)-1-(1-methyl-1H-pyrazol-4-yl)ethyl)amino)-6-phenyl-5,6,7,8-tetrahydroquinazolin-2-yl)(methyl)amino)propyl)cyclohexane-1-carboxylic acid] | 629 | 105.430 % of ANP | 416 | 95.117 % of ANP | – |
| CC[C@H]([C@H]1CC[C@H](C(=O)O)CC1)N(C)c1nc2c(c(N[C@@H](CN3CCC[C@H](C)C3)c3cnn(C)c3)n1)CN(C1CCCCC1)CC2 [Compound 152, (1R,4r)-4-((R)-1-((6-cyclohexyl-4-(((R)-1-(1-methyl-1H-pyrazol-4-yl)-2-((S)-3-methylpiperidin-1-yl)ethyl)amino)-5,6,7,8-tetrahydropyrido[4,3-d]pyrimidin-2-yl)(methyl)amino)propyl)cyclohexane-1-carboxylic acid] | 1190 | 104.537 % of ANP | – | 106.260 % of ANP | 600 |
| CC[C@@H](Nc1nc2c(c(N[C@@H](CN3CCCC[C@H]3C)c3cnn(CC)c3)n1)C[C@H](c1ccccc1)CC2)[C@H]1CC[C@H](C(=O)O)CC1 [Compound 64, (1R,4r)-4-((R)-1-(((R)-4-(((R)-1-(1-ethyl-1H-pyrazol-4-yl)-2-((R)-2-methylpiperidin-1-yl)ethyl)amino)-6-phenyl-5,6,7,8-tetrahydroquinazolin-2-yl)amino)propyl)cyclohexane-1-carboxylic acid] | 213 | 93.045 % of ANP | 175 | 92.911 % of ANP | – |
| CC[C@H]([C@H]1CC[C@H](C(=O)O)CC1)N(C)c1nc2c(c(N[C@@H](CN3C4CCC3CC4)c3cnn(C)c3)n1)C[C@H](c1cccc(F)c1)CC2 [Compound 57, (1R,4r)-4-((R)-1-(((R)-4-(((R)-2-(7-azabicyclo[2.2.1]heptan-7-yl)-1-(1-methyl-1H-pyrazol-4-yl)ethyl)amino)-6-(3-fluorophenyl)-5,6,7,8-tetrahydroquinazolin-2-yl)(methyl)amino)propyl)cyclohexane-1-carboxylic acid] | 199 | 101.340 % of ANP | – | 103.000 % of ANP | 82 |
| CC[C@H]([C@H]1CC[C@H](C(=O)O)CC1)N(C)c1nc2c(c(N[C@@H](CN3CCCCC3)c3ccc(=O)n(CC)c3)n1)C[C@H](c1ccccc1)CC2 [Compound 148, (1R,4r)-4-((R)-1-(((R)-4-(((R)-1-(1-ethyl-6-oxo-1,6-dihydropyridin-3-yl)-2-(piperidin-1-yl)ethyl)amino)-6-phenyl-5,6,7,8-tetrahydroquinazolin-2-yl)(methyl)amino)propyl)cyclohexane-1-carboxylic acid] | 1080 | 93.518 % of ANP | 834 | 102.851 % of ANP | – |
| CC[C@@H](N(C)c1nc2c(c(N[C@@H](CN3C4CCCC3CC4)c3cnn(C)c3)n1)C[C@](C)(c1ccccc1)CC2)C12CC(C(=O)O)(C1)C2 [Compound 28, 3-((1R)-1-(((6R)-4-(((1R)-2-(8-azabicyclo[3.2.1]octan-8-yl)-1-(1-methyl-1H-pyrazol-4-yl)ethyl)amino)-6-methyl-6-phenyl-5,6,7,8-tetrahydroquinazolin-2-yl)(methyl)amino)propyl)bicyclo[1.1.1]pentane-1-carboxylic acid] | 139 | 103.247 % of ANP | – | 105.314 % of ANP | 134 |
| CC[C@H]([C@H]1CC[C@H](C(=O)O)CC1)N(C)c1nc2c(c(N[C@@H](CN3C4CCCC3CC4)c3ccn(C)n3)n1)C[C@H](c1cccc(F)c1)CC2 [Compound 105, (1R,4r)-4-((1R)-1-(((6R)-4-(((1S)-2-(8-azabicyclo[3.2.1]octan-8-yl)-1-(1-methyl-1H-pyrazol-3-yl)ethyl)amino)-6-(3-fluorophenyl)-5,6,7,8-tetrahydroquinazolin-2-yl)(methyl)amino)propyl)cyclohexane-1-carboxylic acid] | 396 | 99.945 % of ANP | – | 97.086 % of ANP | 272 |
| CC[C@@H](Nc1nc2c(c(N[C@@H](CN3C4CCCC3CC4)c3scnc3C)n1)C[C@H](c1cccc(F)c1)CC2)[C@H]1CC[C@H](C(=O)O)CC1 [Compound 26, (1R,4r)-4-((1R)-1-(((6R)-4-(((1S)-2-(8-azabicyclo[3.2.1]octan-8-yl)-1-(4-methylthiazol-5-yl)ethyl)amino)-6-(3-fluorophenyl)-5,6,7,8-tetrahydroquinazolin-2-yl)amino)propyl)cyclohexane-1-carboxylic acid] | 131 | 115.149 % of ANP | – | 102.667 % of ANP | 91 |
| CC[C@@H](Nc1nc2c(c(N[C@@H](CN3C4CCCC3CCC4)c3cnn(CC)c3)n1)C[C@H](c1ccccc1)CC2)[C@H]1CC[C@H](C(=O)O)CC1 [Compound 65, (1R,4r)-4-((R)-1-(((R)-4-(((R)-2-((1S,5S)-9-azabicyclo[3.3.1]nonan-9-yl)-1-(1-ethyl-1H-pyrazol-4-yl)ethyl)amino)-6-phenyl-5,6,7,8-tetrahydroquinazolin-2-yl)amino)propyl)cyclohexane-1-carboxylic acid] | 217 | 106.664 % of ANP | – | 99.329 % of ANP | 128 |
| CC[C@@H](Nc1nc2c(c(N[C@@H](CN3CCCCC3)c3cnc(C)s3)n1)C[C@H](c1ccccc1)CC2)[C@H]1CC[C@H](C(=O)O)CC1 [Compound 119, (1R,4r)-4-((R)-1-(((R)-4-(((S)-1-(2-methylthiazol-5-yl)-2-(piperidin-1-yl)ethyl)amino)-6-phenyl-5,6,7,8-tetrahydroquinazolin-2-yl)amino)propyl)cyclohexane-1-carboxylic acid] | 542 | 89.681 % of ANP | 378 | 90.965 % of ANP | – |
| CC[C@H]([C@H]1CC[C@H](C(=O)O)CC1)N(C)c1nc2c(c(N[C@@H](CN3CCC[C@H](CO)C3)c3cnn(C)c3)n1)C[C@H](c1ccccc1)CC2 [Compound 93, (1R,4r)-4-((R)-1-(((R)-4-(((R)-2-((S)-3-(hydroxymethyl)piperidin-1-yl)-1-(1-methyl-1H-pyrazol-4-yl)ethyl)amino)-6-phenyl-5,6,7,8-tetrahydroquinazolin-2-yl)(methyl)amino)propyl)cyclohexane-1-carboxylic acid] | 318 | 92.058 % of ANP | 261 | 91.105 % of ANP | – |
